Laboratory results: PubChem BioAssay AID1259407 (Chemical Carcinogenesis Research Information System (CCRIS), 2018)
Activity calls are given as the source filed them. How the calls were made is not given here.

Test system: CCRIS mutagenicity, Ames/micronucleus/aberration tests
Assay: CCRIS mutagenicity studies
[1] = Test System: AMES SALMONELLA TYPHIMURIUM, Strain/Indicator: TA97, Metabolic Activation: NONE, Method: PREINCUBATION
[2] = Test System: AMES SALMONELLA TYPHIMURIUM, Strain/Indicator: TA98, Metabolic Activation: NONE, Method: PREINCUBATION
[3] = Test System: AMES SALMONELLA TYPHIMURIUM, Strain/Indicator: TA100, Metabolic Activation: NONE, Method: PREINCUBATION
[4] = Test System: AMES SALMONELLA TYPHIMURIUM, Strain/Indicator: TA1535, Metabolic Activation: NONE, Method: PREINCUBATION
[5] = Test System: AMES SALMONELLA TYPHIMURIUM, Strain/Indicator: TA1537, Metabolic Activation: NONE, Method: PREINCUBATION
[6] = Test System: AMES SALMONELLA TYPHIMURIUM, Strain/Indicator: TA97, Metabolic Activation: RAT, LIVER, S-9, AROCLOR 1254 (10%), Method: PREINCUBATION
[7] = Test System: AMES SALMONELLA TYPHIMURIUM, Strain/Indicator: TA98, Metabolic Activation: HAMSTER, LIVER, S-9, AROCLOR 1254 (10%), Method: PREINCUBATION
[8] = Test System: AMES SALMONELLA TYPHIMURIUM, Strain/Indicator: TA98, Metabolic Activation: RAT, LIVER, S-9, AROCLOR 1254 (10%), Method: PREINCUBATION
[9] = Test System: AMES SALMONELLA TYPHIMURIUM, Strain/Indicator: TA100, Metabolic Activation: RAT, LIVER, S-9, AROCLOR 1254 (10%), Method: PREINCUBATION
[10] = Test System: AMES SALMONELLA TYPHIMURIUM, Strain/Indicator: TA1535, Metabolic Activation: HAMSTER, LIVER, S-9, AROCLOR 1254 (10%), Method: PREINCUBATION
[11] = Test System: AMES SALMONELLA TYPHIMURIUM, Strain/Indicator: TA1535, Metabolic Activation: RAT, LIVER, S-9, AROCLOR 1254 (10%), Method: PREINCUBATION
[12] = Test System: AMES SALMONELLA TYPHIMURIUM, Strain/Indicator: TA1537, Metabolic Activation: HAMSTER, LIVER, S-9, AROCLOR 1254 (10%), Method: PREINCUBATION
[13] = Test System: AMES SALMONELLA TYPHIMURIUM, Strain/Indicator: TA1537, Metabolic Activation: RAT, LIVER, S-9, AROCLOR 1254 (10%), Method: PREINCUBATION
[14] = Test System: AMES SALMONELLA TYPHIMURIUM, Strain/Indicator: TA98, Metabolic Activation: NONE, Method: STANDARD PLATE

## Cc1cccc(N)c1
Test System: AMES SALMONELLA TYPHIMURIUM, Strain/Indicator: TA97, Metabolic Activation: HAMSTER, LIVER, S-9, AROCLOR 1254 (10 OR 30%), Method: PREINCUBATION
  mutagenic call: inactive; negative
[1]
  mutagenic call: inactive; negative
Test System: AMES SALMONELLA TYPHIMURIUM, Strain/Indicator: TA97, Metabolic Activation: RAT, LIVER, S-9, AROCLOR 1254 (10 OR 30%), Method: PREINCUBATION
  mutagenic call: inactive; negative
Test System: AMES SALMONELLA TYPHIMURIUM, Strain/Indicator: TA98, Metabolic Activation: HAMSTER, LIVER, S-9, AROCLOR 1254 (10 OR 30%), Method: PREINCUBATION
  mutagenic call: inactive; negative
[2]
  mutagenic call: inactive; negative
Test System: AMES SALMONELLA TYPHIMURIUM, Strain/Indicator: TA98, Metabolic Activation: RAT, LIVER, S-9, AROCLOR 1254 (10 OR 30%), Method: PREINCUBATION
  mutagenic call: inactive; negative
Test System: AMES SALMONELLA TYPHIMURIUM, Strain/Indicator: TA100, Metabolic Activation: HAMSTER, LIVER, S-9, AROCLOR 1254 (10 OR 30%), Method: PREINCUBATION
  mutagenic call: inactive; negative
[3]
  mutagenic call: inactive; negative
Test System: AMES SALMONELLA TYPHIMURIUM, Strain/Indicator: TA100, Metabolic Activation: RAT, LIVER, S-9, AROCLOR 1254 (10 OR 30%), Method: PREINCUBATION
  mutagenic call: inactive; negative
Test System: AMES SALMONELLA TYPHIMURIUM, Strain/Indicator: TA1535, Metabolic Activation: HAMSTER, LIVER, S-9, AROCLOR 1254 (10 OR 30%), Method: PREINCUBATION
  mutagenic call: inactive; negative
[4]
  mutagenic call: inactive; negative
Test System: AMES SALMONELLA TYPHIMURIUM, Strain/Indicator: TA1535, Metabolic Activation: RAT, LIVER, S-9, AROCLOR 1254 (10 OR 30%), Method: PREINCUBATION
  mutagenic call: inactive; negative
Test System: AMES SALMONELLA TYPHIMURIUM, Strain/Indicator: TA1537, Metabolic Activation: HAMSTER, LIVER, S-9, AROCLOR 1254 (10 OR 30%), Method: PREINCUBATION
  mutagenic call: inactive; negative
[5]
  mutagenic call: inactive; negative
Test System: AMES SALMONELLA TYPHIMURIUM, Strain/Indicator: TA1537, Metabolic Activation: RAT, LIVER, S-9, AROCLOR 1254 (10 OR 30%), Method: PREINCUBATION
  mutagenic call: inactive; negative

## CNc1ccc(O)cc1
Test System: AMES SALMONELLA TYPHIMURIUM, Strain/Indicator: TA97, Metabolic Activation: HAMSTER, LIVER, AROCLOR 1254 (10%), Method: PREINCUBATION
  mutagenic call: inactive; negative
[1]
  mutagenic call: inactive; negative
[6]
  mutagenic call: active; positive
[7]
  mutagenic call: inactive; negative
[2]
  mutagenic call: inactive; negative
[8]
  mutagenic call: inactive; negative
[3]
  mutagenic call: inactive; negative
[9]
  mutagenic call: inactive; negative
[10]
  mutagenic call: inactive; negative
[4]
  mutagenic call: inactive; negative
[11]
  mutagenic call: inactive; negative
[12]
  mutagenic call: active; positive
[5]
  mutagenic call: inactive; negative
[13]
  mutagenic call: active; positive

## S=C=NCCc1ccccc1
[14]
  mutagenic call: inactive; negative
Test System: AMES SALMONELLA TYPHIMURIUM, Strain/Indicator: TA98, Metabolic Activation: RAT LIVER S-9, AROCLOR 1254, Method: STANDARD PLATE
  mutagenic call: active; positive
Test System: AMES SALMONELLA TYPHIMURIUM, Strain/Indicator: TA100, Metabolic Activation: NONE, Method: STANDARD PLATE
  mutagenic call: inactive; negative
Test System: AMES SALMONELLA TYPHIMURIUM, Strain/Indicator: TA100, Metabolic Activation: RAT LIVER S-9, AROCLOR 1254, Method: STANDARD PLATE
  mutagenic call: inactive; negative

## O=P(OC(CCl)CCl)(OC(CCl)CCl)OC(CCl)CCl
Test System: AMES SALMONELLA TYPHIMURIUM, Strain/Indicator: TA97, Metabolic Activation: HAMSTER, LIVER, S-9, AROCLOR 1254 (10%), Method: PREINCUBATION
  mutagenic call: active; positive
[1]
  mutagenic call: inactive; negative
[6]
  mutagenic call: inactive; negative
[7]
  mutagenic call: inactive; negative
[2]
  mutagenic call: inactive; negative
[8]
  mutagenic call: inactive; negative
Test System: AMES SALMONELLA TYPHIMURIUM, Strain/Indicator: TA100, Metabolic Activation: HAMSTER, LIVER, S-9, AROCLOR 1254 (10%), Method: PREINCUBATION
  mutagenic call: active; positive
[3]
  mutagenic call: inactive; negative
Test System: AMES SALMONELLA TYPHIMURIUM, Strain/Indicator: TA100, Metabolic Activation: RAT, LIVER, HEPATOCYTES, PHENOBARBITAL, Method: PREINCUBATION
  mutagenic call: inactive; negative
Test System: AMES SALMONELLA TYPHIMURIUM, Strain/Indicator: TA100, Metabolic Activation: RAT, LIVER, HEPATOCYTES, Method: PREINCUBATION
  mutagenic call: active; positive
Test System: AMES SALMONELLA TYPHIMURIUM, Strain/Indicator: TA100, Metabolic Activation: RAT, LIVER, MICROSOMES, PHENOBARBITAL, Method: STANDARD PLATE
  mutagenic call: active; positive
[9]
  mutagenic call: inactive; negative
Test System: AMES SALMONELLA TYPHIMURIUM, Strain/Indicator: TA100, Metabolic Activation: RAT, LIVER, S-9, PHENOBARBITAL, Method: STANDARD PLATE
  mutagenic call: active; positive
Test System: AMES SALMONELLA TYPHIMURIUM, Strain/Indicator: TA100, Metabolic Activation: RAT, LIVER, S-9, Method: STANDARD PLATE
  mutagenic call: inactive; negative
[10]
  mutagenic call: active; positive
[4]
  mutagenic call: inactive; negative
[11]
  mutagenic call: active; positive
[12]
  mutagenic call: inactive; negative
[5]
  mutagenic call: inactive; negative
[13]
  mutagenic call: inactive; negative
Test System: CHINESE HAMSTER V-79, Strain/Indicator: V-79/6-THIOGUANINE, Metabolic Activation: RAT, LIVER, MICROSOMES, PHENOBARBITAL
  mutagenic call: inactive; negative
Test System: UDS RODENT HEPATOCYTES, Strain/Indicator: THY INCORP (NON-S-PHASE), Metabolic Activation: RAT, LIVER, HEPATOCYTES, PHENOBARBITAL, Method: LIQUID SCINTILLATION COUNTING
  mutagenic call: inactive; negative
Test System: UDS RODENT HEPATOCYTES, Strain/Indicator: THY INCORP (NON-S-PHASE), Metabolic Activation: RAT, LIVER, HEPATOCYTES, Method: LIQUID SCINTILLATION COUNTING
  mutagenic call: inactive; negative

## CCC12OC1(C(=O)OC)C(=O)NC2(C)O (stereo not given)
Test System: AMES SALMONELLA TYPHIMURIUM, Strain/Indicator: TA98, Metabolic Activation: NONE, Method: DISK ASSAY
  mutagenic call: inactive; negative
[14]
  mutagenic call: inactive; negative
Test System: AMES SALMONELLA TYPHIMURIUM, Strain/Indicator: TA98, Metabolic Activation: RAT, LIVER, S-9, AROCLOR 1254, Method: DISK ASSAY
  mutagenic call: inactive; negative
Test System: AMES SALMONELLA TYPHIMURIUM, Strain/Indicator: TA98, Metabolic Activation: RAT, LIVER, S-9, AROCLOR 1254, Method: STANDARD PLATE
  mutagenic call: active; positive
